Laboratory results as given in patent publication US20020026053A1, “Novel 3-(substituted) -2- indolinones compounds and use thereof as inhibitors of protein kinase activity” (priority 1997, published 2002).

System: FLK-1 receptor
Assay: FLK-1 Assay (cellular/catalytic ELISA, VEGF-stimulated phosphotyrosine)
Format: cell-based
Parameters: concentration or dose not given beside the values
Procedure, shortened: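 NIH3T3 C7#3 cells engineered to express Flk-1 were serum-starved overnight (0.1% FBS), then exposed to compound for 2 h at 37 °C (final dilution 1:200, 0.5% DMSO) before VEGF stimulation. Lysates captured on anti-FLK-1 antiserum plates; phosphotyrosine detected by UB40 antibody/POD-ABTS ELISA versus untreated controls.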

In order of falling “Flk Kinase % Inhibition (P.110)” value:
1. CCOc1ccc(C=C2C(=O)Nc3c(Br)cc(Br)c(C)c32)cc1OC [10719/H02]  22.0%
2. CCc1c(C)[nH]c(C=C2C(=O)Nc3c(Br)cc(Br)c(C)c32)c1C [10719/H05]  18.5%
3. COc1cc(OC)c(C=C2C(=O)Nc3c(Br)cc(Br)c(C)c32)c(OC)c1 [10719/H06]  17.8%
4. O=C1Nc2ccc(I)cc2C1=Cc1cc(C(F)(F)F)cc(C(F)(F)F)c1 [10735/B06]  17.5%
5. O=C1Nc2ccc(I)cc2C1=Cc1cccc2ccccc12 [10735/B09]  15.9%
6. Cc1c(Br)cc(Br)c2c1C(=Cc1ccc([N+](=O)[O-])o1)C(=O)N2 [10718/H11]  13.0%
7. Cc1c(Br)cc(Br)c2c1C(=Cc1ccc(Br)s1)C(=O)N2 [10734/H11]  9.9%
8. O=C1Nc2ccc(I)cc2C1=Cc1ccc(Cl)cc1Cl [10735/B10]  9.2%
9. O=C1Nc2ccc(I)cc2C1=Cc1cccc(C(F)(F)F)c1 [10735/B05]  7.4%
10. O=C1Nc2ccc(I)cc2C1=Cc1cc(F)cc(F)c1 [10735/B04]  6.1%
11. Cc1c(Br)cc(Br)c2c1C(=Cc1ccc(C(C)(C)C)cc1)C(=O)N2 [10734/H10]  3.9%
12. COc1ccc(C=C2C(=O)Nc3c(Br)cc(Br)c(C)c32)c(OC)c1 [10719/H04]  3.4%
13. Cc1c(Br)cc(Br)c2c1C(=Cc1ccc([N+](=O)[O-])cc1)C(=O)N2 [10734/H06]  2.6%
14. O=C1Nc2c(Br)cc(Br)cc2C1=Cc1ccc(Cl)cc1Cl [10735/A10]  2.2%
15. O=C1Nc2c(Br)cc(Br)cc2C1=Cc1ccc(-c2ccccc2)cc1 [10735/A11]  2.2%
16. CCN(CC)c1ccc(C=C2C(=O)Nc3c(Br)cc(Br)c(C)c32)c(O)c1 [10734/H05]  1.6%
17. O=C1Nc2ccc(I)cc2C1=Cc1c(F)cccc1F [10735/B08]  1.6%
18. Cc1c(Br)cc(Br)c2c1C(=Cc1ccco1)C(=O)N2 [10718/H10]  1.4%
19. Cc1c(Br)cc(Br)c2c1C(=Cc1cc(Br)cc(Br)c1O)C(=O)N2 [10734/H07]  1.4%
20. Cc1ccccc1C=C1C(=O)Nc2ccc(I)cc21 [10735/B02]  1.1%
21. O=C1Nc2c(Br)cc(Br)cc2C1=Cc1ccc(F)c(F)c1 [10735/A03]  −1.0%
22. N#Cc1ccccc1C=C1C(=O)Nc2c(Br)cc(Br)cc21 [10735/A07]  −1.3%
23. Cc1c(Br)cc(Br)c2c1C(=Cc1cccc(F)c1O)C(=O)N2 [10734/H08]  −2.2%
24. Cc1c(Br)cc(Br)c2c1C(=Cc1ccc(O)c(Br)c1)C(=O)N2 [10734/H09]  −2.2%
25. Cc1c(O)ccc(C=C2C(=O)Nc3c(Br)cc(Br)c(C)c32)c1O [10718/H09]  −5.0%
26. N#Cc1ccccc1C=C1C(=O)Nc2ccc(I)cc21 [10735/B07]  −5.9%
27. O=C1Nc2c(Br)cc(Br)cc2C1=Cc1cccc2ccccc12 [10735/A09]  −6.3%
28. O=C1Nc2c(Br)cc(Br)cc2C1=Cc1cc(C(F)(F)F)cc(C(F)(F)F)c1 [10735/A06]  −8.5%
29. O=C1Nc2c(Br)cc(Br)cc2C1=Cc1cccc(C(F)(F)F)c1 [10735/A05]  −12.2%
30. Cc1ccccc1C=C1C(=O)Nc2c(Br)cc(Br)cc21 [10735/A02]  −13.4%
31. O=C1Nc2ccc(I)cc2C1=Cc1ccc(F)c(F)c1 [10735/B03]  −14.3%
32. O=C1Nc2c(Br)cc(Br)cc2C1=Cc1c(F)cccc1F [10735/A08]  −19.6%
33. O=C1Nc2c(Br)cc(Br)cc2C1=Cc1cc(F)cc(F)c1 [10735/A04]  −20.8%
34. Cc1c(Br)cc(Br)c2c1C(=Cc1ccc(O)c(O)c1)C(=O)N2 [10719/H03]  −40.4%
